US11453660B2, “Androgen receptor and glucocorticoid receptor modulators” (ONCOSTELLAE, S.L., priority 2017, dated 2022)

What follows are compounds tested against T1, Human Glucocorticoid Receptor (Homo sapiens, UniProt P04150) (assay: Competition Binding in IM-9 Human Glucocorticoid Receptor (GR IM-9)). Conditions: cytosol from IM-9 cell line, 1.5 nM [3H]-Dexamethasone, 4° C. for 6 hours.
T1 construct: endogenous in cells; host or cells: cytosol from IM-9 cell line
T1 sequence (P04150 1-777): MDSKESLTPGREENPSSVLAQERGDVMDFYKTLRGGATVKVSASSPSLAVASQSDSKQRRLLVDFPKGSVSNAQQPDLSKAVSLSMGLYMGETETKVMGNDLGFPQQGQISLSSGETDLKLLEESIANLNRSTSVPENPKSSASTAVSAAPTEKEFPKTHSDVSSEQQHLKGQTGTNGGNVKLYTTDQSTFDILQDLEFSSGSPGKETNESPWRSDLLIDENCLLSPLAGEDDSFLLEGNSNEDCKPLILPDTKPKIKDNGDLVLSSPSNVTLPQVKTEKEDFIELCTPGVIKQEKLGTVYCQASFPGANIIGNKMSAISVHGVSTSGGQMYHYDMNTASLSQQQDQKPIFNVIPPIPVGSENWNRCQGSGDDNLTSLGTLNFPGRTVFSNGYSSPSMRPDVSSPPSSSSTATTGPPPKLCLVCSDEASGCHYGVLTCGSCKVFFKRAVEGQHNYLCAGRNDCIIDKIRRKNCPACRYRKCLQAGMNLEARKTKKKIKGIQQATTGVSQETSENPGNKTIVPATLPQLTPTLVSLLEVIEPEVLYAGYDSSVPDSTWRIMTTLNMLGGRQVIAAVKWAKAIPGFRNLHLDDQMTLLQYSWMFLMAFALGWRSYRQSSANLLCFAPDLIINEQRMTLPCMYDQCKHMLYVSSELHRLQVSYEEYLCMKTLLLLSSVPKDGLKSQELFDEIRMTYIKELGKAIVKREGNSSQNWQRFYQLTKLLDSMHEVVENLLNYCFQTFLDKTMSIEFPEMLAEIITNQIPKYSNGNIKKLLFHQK
Procedure, shortened: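 Radioligand competition using 100 μg IM-9 cell cytosol and 1.5 nM [3H]-dexamethasone, incubated 6 h at 4° C in TES/molybdate buffer, pH 7.4. Filtration on PEI-treated GF/B filters, scintillation counting; nonspecific binding defined with 10 μM triamcinolone.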

Row | SMILES | IC50 [nM]
1 | COC(=O)C1=C(C)NC(N)=C(C(=O)OCC2CCC2)C1c1csc2c(C#N)cccc12 (stereo not drawn) [Example D33, 3-(Cyclobutylmethyl) 5-methyl 2-amino-4-(7-cyanobenzo[b]thiophen-3-yl)-6-methyl-1,4-dihydropyridine-3,5-dicarboxylate] | < 100

Each compound was assayed against T2, human androgen receptor (Homo sapiens, UniProt P10275, T878A) (assay: Human Androgen Receptor Binding (radioligand binding, LnCap prostate cancer cell line)). Conditions: LnCap cells, displacement of [^3H]-methyltrienolone, 2 hours at 37° C.; read-out: AR LNCaP.
T2 construct: endogenously expressed human androgen receptor using the LnCap prostate cancer cell line; endogenous in cells; host or cells: LNCaP prostate cancer cell line (whole cells)
T2 sequence (P10275 1-920 T878A): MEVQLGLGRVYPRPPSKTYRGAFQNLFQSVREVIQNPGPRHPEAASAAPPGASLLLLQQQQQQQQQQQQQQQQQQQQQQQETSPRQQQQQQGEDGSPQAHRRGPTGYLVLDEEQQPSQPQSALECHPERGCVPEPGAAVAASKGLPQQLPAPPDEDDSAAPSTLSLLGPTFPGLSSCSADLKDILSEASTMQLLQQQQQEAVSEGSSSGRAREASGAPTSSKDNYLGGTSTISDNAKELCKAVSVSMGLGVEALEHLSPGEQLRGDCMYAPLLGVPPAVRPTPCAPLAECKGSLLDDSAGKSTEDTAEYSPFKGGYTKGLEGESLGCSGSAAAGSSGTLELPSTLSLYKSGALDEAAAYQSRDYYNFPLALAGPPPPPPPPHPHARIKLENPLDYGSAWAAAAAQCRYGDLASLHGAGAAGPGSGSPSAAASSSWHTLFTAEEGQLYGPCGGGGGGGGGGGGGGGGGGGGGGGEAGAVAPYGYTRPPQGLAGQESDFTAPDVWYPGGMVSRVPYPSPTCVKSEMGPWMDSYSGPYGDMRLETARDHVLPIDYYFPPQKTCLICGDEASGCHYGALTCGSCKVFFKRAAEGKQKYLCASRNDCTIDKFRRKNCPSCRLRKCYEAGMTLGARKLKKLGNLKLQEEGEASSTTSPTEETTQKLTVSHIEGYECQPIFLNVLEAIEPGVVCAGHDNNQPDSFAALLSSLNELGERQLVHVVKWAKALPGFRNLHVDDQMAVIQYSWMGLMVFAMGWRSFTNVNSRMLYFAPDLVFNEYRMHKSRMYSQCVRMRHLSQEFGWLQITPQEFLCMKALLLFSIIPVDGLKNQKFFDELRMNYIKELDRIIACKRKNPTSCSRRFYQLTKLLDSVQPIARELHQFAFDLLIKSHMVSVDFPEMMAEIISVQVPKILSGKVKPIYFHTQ
Protocol: Human Androgen Receptor Binding
Radioligand binding studies were carried out on endogenously expressed human androgen receptor using the LnCap prostate cancer cell line. The test is based on measuring radioactively labelled AR ligand [^3H]-methyltrienolone that gets displaced by increasing concentrations of test compound. The test is performed in 96-well plates (Falcon, #353072). Positive and negative controls are also required in each analyzed plate to evaluate the total and non-specific binding binding of the radioligand to the receptor. Cells (60000 per well) were incubated for 24 hours before executing the experiment at 37° C. and in a 5% CO2 atmosphere. Medium was replaced by assay buffer (RPMI-640 (ATCC #30-2001) supplemented with 0.1% bovine serum albumin (Sigma #8806-56) and Triamcinolone acetonide (Sigma #T6501)). The compounds at the desired concentrations and [^3H]methyltrienolone (Perkin Elmer #NET590) were added to the wells.
In order to obtain a dose-response curve and calculate the potency of inhibition (expressed as IC50) for AR, a series of 1:10 dilutions in test in 1× buffer from 10 μM to 0.1 nM for each compound was carried out.
Cells were incubated for 2 hours at 37° C. in a 5% CO2 atmosphere and then washed twice with ice-cold HBSS. Then cells were lysed with solubilization buffer (Hank's Balanced Salt Solution (HBSS, Sigma #H6648), 0.5% Sodium dodecyl sulfate 0.5% (SDS, Sigma #L7390-500G, Lote: 078K0102) and 20% Glycerol (Sigma Aldrich, #G2025) for 30 minutes at RT. 75 μL aliquots were taken from each well and transferred to a 96-well flexiplate (Perkin Elmer #1450-401) and mixed with 100 μL of scintillation cocktail (Optiphase supermix, PerkinElmer, #1200-439). Plates are shaken for 60 minutes and radioactivity was measured in a beta scintillation counter (Microbeta Trilux, Perkin Elmer).

Row | SMILES | IC50 [nM]
2 | COC(=O)C1=C(C)NC(N)=C(C(=O)OCC2CCC2)C1c1csc2c(C#N)cccc12 (stereo not drawn) [Example D33, 3-(Cyclobutylmethyl) 5-methyl 2-amino-4-(7-cyanobenzo[b]thiophen-3-yl)-6-methyl-1,4-dihydropyridine-3,5-dicarboxylate] | 100 to 1000

Each compound was assayed against T3, Rat Androgen Receptor (Rattus norvegicus, UniProt P15207) (assay: Rat Androgen Receptor Binding (polarscreen AR competitor assay, fluorescence polarization)). Conditions: displacement of Fluormone AL Green, 4 hours at RT, read-out: AR rat-fluorimetric.
T3 construct: purchased Life Technologies A15880
T3 sequence (P15207 646-902 limits assumed): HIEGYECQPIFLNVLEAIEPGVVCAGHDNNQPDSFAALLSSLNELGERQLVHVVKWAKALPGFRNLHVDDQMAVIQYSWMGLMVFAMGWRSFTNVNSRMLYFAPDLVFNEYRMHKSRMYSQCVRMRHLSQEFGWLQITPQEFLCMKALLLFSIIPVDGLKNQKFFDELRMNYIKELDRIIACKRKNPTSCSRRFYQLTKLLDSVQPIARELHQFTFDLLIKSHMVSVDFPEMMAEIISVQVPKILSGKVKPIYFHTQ
Protocol: Pharmacological Activity Rat Androgen Receptor Binding
The assay was carried out following the instructions of polarscreen AR competitor assay green kit (Life Technologies, Cat #.: A15880). Briefly, the test is based on measuring the changes of fluorescence polarization shown by the Fluormone AL Green. Thus, when the Fluormone is bound to the receptor, a fluorescence polarization is observed that diminishes when a ligand competes for the receptor binding site and the Fluormone gets displaced.
The inhibition values for each of the compounds are measured in duplicate at 1 and 10 μM and the plate is incubated for 4 hours at RT. Fluorescence polarization is the measured in a Tecan Infinite M1000 Pro reader (λexc=485 nm, λem=535 nm). In order to obtain a dose-response curve and calculate the potency of inhibition (expressed as IC50) for AR, a series of 1:10 dilutions in test in 1× buffer from 10 μM to 0.1 nM for each compound was carried out.

Row | SMILES | IC50 [nM]
3 | CC(=O)C1=C(C)NC(C)=C(C(C)=O)C1c1csc2ccc(N3CCOCC3)cc12 [Example H4, 1,1′-(2,6-dimethyl-4-(5-morpholinobenzo[b]thiophen-3-yl)-1,4-dihydropyridine-3,5-diyl)bis(ethan-1-one)] | ≥ 1000
4 | COc1ccc2c(C3C(C(C)=O)=C(C)NC(C)=C3C(C)=O)csc2c1 [Example G3, 1,1′-(4-(6-Methoxybenzo[b]thiophen-3-yl)-2,6-dimethyl-1,4-dihydropyridine-3,5-diyl)diethanone] | ≥ 1000
5 | COC(=O)C1=C(C)NC(C)=C(C(C)=O)C1c1csc2ccc(C(=O)N3CCN(C)CC3)cc12 (stereo not drawn) [Example J17, Methyl 5-acetyl-2,6-dimethyl-4-(5-(4-methylpiperazine-1-carbonyl)benzo[b]thiophen-3-yl)-1,4-dihydropyridine-3-carboxylate] | ≥ 1000
6 | COC(=O)C1=C(C)NC(C)=C(C(C)=O)C1c1csc2ccncc12 (stereo not drawn) [Example J19, Methyl 5-acetyl-2,6-dimethyl-4-(thieno[3,2-c]pyridin-3-yl)-1,4-dihydropyridine-3-carboxylate] | ≥ 1000
7 | CC(=O)C1=C(C)NC(C)=C(C(C)=O)C1c1csc2cnccc12 [Example H14, 1,1′-(2,6-Dimethyl-4-(thieno[2,3-c]pyridin-3-yl)-1,4-dihydropyridine-3,5-diyl)bis(ethan-1-one)] | ≥ 1000
8 | CC(=O)C1=C(C)NC(C)=C(C(=O)OC2CCCCC2)C1c1csc2ccccc12 (stereo not drawn) [Example C3, Cyclohexyl 5-acetyl-4-(benzo[b]thiophen-3-yl)-2,6-dimethyl-1,4-dihydropyridine-3-carboxylate] | < 100
9 | COC(=O)C1=C(C)NC(C)=C(C(C)=O)C1c1csc2ccc(C(=O)NCC3CC3)cc12 (stereo not drawn) [Example J16, Methyl 5-acetyl-4-(5-((cyclopropylmethyl)carbamoyl)benzo[b]thiophen-3-yl)-2,6-dimethyl-1,4-dihydropyridine-3-carboxylate] | ≥ 1000
10 | CC(=O)C1=C(C)NC(C)=C(C(C)=O)C1c1csc2ccc(C#N)cc12 [Example H7, 3-(3,5-diacetyl-2,6-dimethyl-1,4-dihydropyridin-4-yl)benzo[b]thiophene-5-carbonitrile] | ≥ 1000
11 | CC(=O)C1=C(C)NC(C)=C(S(C)(=O)=O)C1c1csc2ccccc12 (stereo not drawn) [Example J10, 1-(4-(benzo[b]thiophen-3-yl)-2,6-dimethyl-5-(methylsulfonyl)-1,4-dihydro-pyridin-3-yl)ethanone] | 100 to 1000
12 | CC(=O)C1=C(C)NC(C)=C(C(=O)OC2CCCC2)C1c1csc2ccccc12 (stereo not drawn) [Example C26, Cyclopentyl 5-acetyl-4-(benzo[b]thiophen-3-yl)-2,6-dimethyl-1,4-dihydropyridine-3-carboxylate] | < 100
13 | COCCC1=C(C(=O)OC)C(c2csc3ccccc23)C(C(C)=O)=C(C)N1 (stereo not drawn) [Example C7, Methyl 5-acetyl-4-(benzo[b]thiophen-3-yl)-2-(2-methoxyethyl)-6-methyl-1,4-dihydropyridine-3-carboxylate] | 100 to 1000
14 | CCOC(=O)C1=C(C)NC(C)=C(C(C)=O)C1c1csc2ccccc12 (stereo not drawn) [Example J2, Ethyl 5-acetyl-4-(benzo[b]thiophen-3-yl)-2,6-dimethyl-1,4-dihydropyridine-3-carboxylate] | < 100
15 | CC(=O)C1=C(C)NC(C)=C(C(C)=O)C1c1csc2ccc(C(=O)NC3CC3)cc12 [Example H9, N-cyclopropyl-3-(3,5-diacetyl-2,6-dimethyl-1,4-dihydropyridin-4-yl)benzo[b]thiophene-5-carboxamide] | ≥ 1000
16 | COC(=O)C1=C(C)NC(C)=C(C(C)=O)C1c1csc2ccccc12 (single isomer, unassigned) [Example A2, Methyl 5-acetyl-4-(benzo[b]thiophen-3-yl)-2,6-dimethyl-1,4-dihydro-pyridine-3-carboxylate] | 100 to 1000
17 | CC(=O)C1=C(C)NC(C)=C(C(C)=O)C1c1csc2ccc(C(=O)N3CCOCC3)cc12 [Example H12, 1,1′-(2,6-Dimethyl-4-(5-(morpholine-4-carbonyl)benzo[b]thiophen-3-yl)-1,4-dihydropyridine-3,5-diyl)bis(ethan-1-one)] | ≥ 1000
18 | COC(=O)C1=C(C2CC2)NC(C2CC2)=C(C(C)=O)C1c1csc2ccccc12 (stereo not drawn) [Example J24, Methyl 5-acetyl-4-(benzo[b]thiophen-3-yl)-2,6-dicyclopropyl-1,4-dihydropyridine-3-carboxylate] | ≥ 1000
